Reference: article PMC11684029, “Discovery of VU6024578/BI02982816: An mGlu1 Positive Allosteric Modulator with Efficacy in Preclinical Antipsychotic and Cognition Models” (Journal of Medicinal Chemistry, 2024)
Entries after “also recorded” stand apart in the source; their conditions may differ.

Tests used:
human mGlu1 = molecular target: T1, human mGlu1 (Homo sapiens, UniProt Q13255); assay: mGlu1 calcium mobilization (triple-add) PAM assay; assay type: cell-based
T1 construct: expressed in transfected cells; pcDNA5/TO)
T1 sequence (Q13255 19-1194): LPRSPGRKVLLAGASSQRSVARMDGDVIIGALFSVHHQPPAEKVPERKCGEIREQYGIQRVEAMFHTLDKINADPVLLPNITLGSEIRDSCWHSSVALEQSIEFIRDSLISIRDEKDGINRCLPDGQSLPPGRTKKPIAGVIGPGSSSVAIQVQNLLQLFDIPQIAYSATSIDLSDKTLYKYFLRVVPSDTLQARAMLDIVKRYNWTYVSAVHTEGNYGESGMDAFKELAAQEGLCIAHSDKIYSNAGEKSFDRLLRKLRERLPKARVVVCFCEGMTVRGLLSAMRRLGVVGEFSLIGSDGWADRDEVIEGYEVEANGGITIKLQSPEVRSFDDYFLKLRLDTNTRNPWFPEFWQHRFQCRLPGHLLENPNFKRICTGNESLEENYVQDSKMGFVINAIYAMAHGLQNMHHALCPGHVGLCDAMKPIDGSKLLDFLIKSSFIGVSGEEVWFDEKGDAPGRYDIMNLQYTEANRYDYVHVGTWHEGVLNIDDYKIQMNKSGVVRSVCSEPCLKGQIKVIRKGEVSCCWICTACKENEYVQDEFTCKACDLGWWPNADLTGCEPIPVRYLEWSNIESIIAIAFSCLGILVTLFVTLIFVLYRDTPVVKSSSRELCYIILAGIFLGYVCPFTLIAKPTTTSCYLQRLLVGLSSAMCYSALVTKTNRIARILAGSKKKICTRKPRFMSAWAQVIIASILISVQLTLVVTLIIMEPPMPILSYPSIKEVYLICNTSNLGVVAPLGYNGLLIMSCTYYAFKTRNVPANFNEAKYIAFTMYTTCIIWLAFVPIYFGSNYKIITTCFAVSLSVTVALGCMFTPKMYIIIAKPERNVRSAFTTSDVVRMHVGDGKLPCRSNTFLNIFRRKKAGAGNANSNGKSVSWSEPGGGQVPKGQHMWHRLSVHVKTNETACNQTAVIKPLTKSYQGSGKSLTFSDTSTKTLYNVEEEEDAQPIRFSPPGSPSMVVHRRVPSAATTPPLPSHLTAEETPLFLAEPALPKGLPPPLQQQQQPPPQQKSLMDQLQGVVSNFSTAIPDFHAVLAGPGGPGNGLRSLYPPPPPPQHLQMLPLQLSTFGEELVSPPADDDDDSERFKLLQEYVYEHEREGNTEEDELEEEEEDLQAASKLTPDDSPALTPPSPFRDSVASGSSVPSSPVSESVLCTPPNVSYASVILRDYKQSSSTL
Experimental: Tetracycline-inducible human mGlu1 WT-T-REx-293 cells (Wu et al, Science 2014) were cultured at 37 °C in Dulbecco’s Modified Eagle Medium (DMEM) growth medium containing 10% Tet-tested FBS, 2 mM L-glutamine, 20 mM HEPES, 0.1 mM nonessential amino acids, 1 mM sodium pyruvate, antibiotic/antimycotic, 100 μg/mL hygromycin and 5 μg/mL blasticidin in the presence of 5% CO2. […] The mutant stable cell lines were generated in the same manner as the WT as previously described and cultured in the growth medium described above.
To determine the potency of mGlu1 PAMs in calcium assays, Ca flux was measured as previously described in ACS Chem. Bio. 2014, 9, 2334–2346. Briefly, the day before the assay, human mGlu1 WT-T-REx-293 cells were plated in black-walled, clear-bottomed, poly-D-lysine coated 96-well plates at 80,000 cells/100 μL assay medium (DMEM supplemented with 10% dialyzed FBS, 20 mM HEPES, and 1 mM sodium pyruvate) containing 50 ng/mL of tetracycline to induce mGlu1 expression. The next day, media was removed and the cells were incubated with 50 μL of 1.15 μM Fluo-4 AM dye solution prepared in assay buffer (buffer (Hank’s balanced salt solution, 20 mM HEPES, and 2.5 mM probenecid) for 45 min at 37 °C, the dye was removed and replaced with 45 μL of assay buffer. Then, calcium flux was measured using Flexstation II (Molecular Devices, Sunnyvale, CA). Compounds serially diluted at half log concentrations in DMSO were further diluted in assay buffer. The compounds or DMSO vehicle were added to cells and incubated for 2.5 min and an EC20 concentration of glutamate was added and incubated for 1 min. An ECmax concentration of glutamate was also added to cells that were incubated with DMSO vehicle to accurately calculate the EC20 calcium response. Data were normalized by subtracting the basal florescent peak before EC20 agonist addition from the maximal peak elicited by EC20 agonist and PAMs. Using GraphPad Prism 5.0, the concentration response curves were generated and the potencies of the mGlu1 PAMs were determined.

hydrolytic stability = assay type: physicochemical
[1] = predicted hepatic clearance; assay type: in vitro ADME, cyno
From the text: Across species, 19d had acceptable fraction unbound in both plasma (fu (plasma): 0.03 (human), 0.041 (rat), 0.025 (cyno), 0.039 (dog) and 0.056 (mouse)) and brain (fu (brain): 0.034 (rat) and 0.081 (mouse)).

rats [2] = assay: rotarod; assay type: in vivo; conditions: rat, doses up to 10 mg/kg
Experimental: (§1) In order to enable our target validation work, we first profiled PAM 19d in a rat locomotor battery to ensure that pharmacodynamic efficacy was not mistaken for gross effects on locomotion.[20] […] PK was performed in parallel to establish a PK/PD relationship.[24]
On the first day, the animals were placed on the rotarod apparatus which was rotating at a speed of 20 rpm. If the rats fall of the bar, the animals were placed back on the apparatus for a total of 2 min. On the day of testing, adult male rats were pretreated with VU6024578 (1–10 mg/kg) 65 min before being placed on the rotarod apparatus. Testing consisted of accelerating rotarod from 4 to 40 rpm over 5 min. The time and final speed when the rats fall off of the apparatus was recorded.

[3] = PK in parallel to rat locomotor battery; assay type: in vivo
Experimental: as §1
Figure S2. 19d assessed in rat locomotor battery A: Exposure of 19d in the locomotor battery experiment. […]

rats [4] = assay: rat AHL Cmax versus Ctrough study; assay type: in vivo
Experimental: (§2) Based on these positive behavioral data and the clear PK/PD relationship tied to achieving free brain levels at, or above, the mGlu1 PAM EC50, we next wanted to define the role of Cmax versus Ctrough drug (19d) concentrations in driving the PK/PD relationship. To accomplish this, pretreatment times and doses were calculated based upon previous PK (see Supporting Information Figure S3)[20] data to target free brain concentrations at and below the in vitro EC50 at the time of amphetamine challenge. Rats were pretreated with 3 mg/kg 19d or vehicle after habituation to the locomotor chambers are described in Figure 9A. Rats pretreated with 19d (10–60 mg/kg) or vehicle were administered compound prior to starting the amphetamine-induced hyperlocomotion experiment as depicted in Figure 9B-D. Ambulations were evaluated for 90 min post amphetamine treatment for all dosing groups. Pretreatment of 19d, chamber habituation, amphetamine treatment and ambulation recording times are outlined for each dosing group in Figure 9. Blood and brain samples were obtained at the end of testing (EOT) to determine 19d levels at the end of the study (Table 6).
The terminal free brain concentrations for this dosing group were 40 nM.
Figure 10 Amphetamine-induced hyperlocomotion in rats. A) 1 h pretreatment of 3 mg/kg 19d. B) 5 h pretreatment of 10 mg/kg 19d. C) 28.5 h pretreatment of 60 mg/kg 19d. Total ambulation from 95 to 180 min. *p < 0.05 compared to Vehicle + Amphetamine treated animals. TEXT PRINTED IN THE PICTURE: (A) 19d: Mean % reversal 27.3% * (3 mg/kg 19d + AMP) | (B) 19d: Mean % reversal 25.1% * (10 mg/kg 19d + AMP) | (C) 19d: Mean % reversal 7.3% (60 mg/kg 19d + AMP) DOUBTS OF THE COPYIST ABOUT THIS PICTURE: 19d, panel A, Mean % reversal: small print, 27.3% could be 27.8% / 19d, panel B, Mean % reversal: small print, 25.1% could be 26.1% / 19d, panel C, Mean % reversal: small print, 7.3% could be 7.8%

[5] = brain exposure in rat AHL Cmax versus Ctrough study; assay type: in vivo
Experimental: as §2
The terminal free brain concentrations for this dosing group were 40 nM. […]

[6] = PAM, calcium flux, EC20 glutamate

SMILES: Cn1nc(-c2ccnn2C)cc1CNC(=O)c1cc(-c2ccco2)ccc1Cl [Compound 19d, 2-Chloro-N-((1,2′-dimethyl-1H,2’H-[3,3′-bipyrazol]-5-yl)methyl)-5-(furan-2-yl)benzamide]
- EC50 (human mGlu1; [6]): 54 nM
- human mGlu1 Glumax (human mGlu1; [6]): 83%
- human mGlu1 pEC50 (human mGlu1; n = 77): 7.31 ± 0.02
- receptor desensitization (antagonist/EC80 window) (human mGlu1; triple-add protocol): only slight mGlu1 desensitization; also recorded: little receptor desensitization
- intrinsic agonist activity (compound alone window) (human mGlu1; triple-add protocol, up to 30 μM): no agonism; also recorded: no intrinsic agonist activity
- hydrolytic stability (hydrolytic stability; acidic, pH 2.2): hydrolytically stable
- hydrolytic stability (hydrolytic stability; neutral, pH 7.4): hydrolytically stable
- CLhep, cyno [1]: 31 mL/min/kg
- rotarod (rats [2]): lack of effect
- Kp ([3]; brain, rat locomotor battery PK): ~0.75
- free brain concentration ([3]; rat, 10 mg/kg): 134 nM
- free brain concentration over in vitro EC50 ([3]; rat, 10 mg/kg): ~2.9 fold
- effect on AHL, in words (rats [4]; 3 mg/kg, 1 h prior to amphetamine): significantly reduced
- effect on AHL, in words (rats [4]; 10 mg/kg, 5 h before amphetamine): significantly reduced
- reduction of locomotor activity after amphetamine, in words (rats [4]; 60 mg/kg, 28.5 h before amphetamine): not demonstrated
- Cmax over rat in vitro potency ([5]; 60 mg/kg, at Tmax): 6.8 fold
- concentration at 2.5 h ([5]; Sprague-Dawley, brain, oral, 3 mg/kg, pretreatment time 2.5 hr, read-out: Brain Unbound @EOT): 40 nM
- concentration at 6.5 h ([5]; Sprague-Dawley, brain, oral, 10 mg/kg, pretreatment time 6.5 hr, read-out: Brain Unbound @EOT): 44 nM
- concentration at 15 h ([5]; Sprague-Dawley, brain, oral, 60 mg/kg, pretreatment time 15 hr, read-out: Brain Unbound @EOT): 3 nM
- concentration at 30 h ([5]; Sprague-Dawley, brain, oral, 60 mg/kg, pretreatment time 30 hr, read-out: Brain Unbound @EOT): 6 nM
